From patent US20240294551A1 (AMGEN INC., priority 2022, published 2024) come the findings set out here.

Assay [1] deals with GDP-bound KRAS protein (aa 1-169), containing both G12D and C118A amino acid substitutions (Homo sapiens (Human), UniProt P01116, C118A/G12D). Description: KRAS G12D Coupled Nucleotide Exchange Assay. The class given is biochemical. The settings on record: read-out: KRAS G12D Coupled Exchange IC50.
Assay [2] concerns Phosphorylation of ERK1/2 in AsPC-1 cells. In words: Phospho-ERK1/2 MSD Assay. The following applies: read-out: 2 h p-ERK (AsPC-1 cells), IC50. It counts as cell-based, human. Here is the method:
AsPC-1 (ATCC® CRL-1682™) cells were cultured in RPMI 1640 Medium (ThermoFisher Scientific 11875093) containing 10% fetal bovine serum (ThermoFisher Scientific 16000044) and 1× penicillin-streptomycin-glutamine (ThermoFisher Scientific 10378016). Sixteen hours prior to compound treatment, AsPC-1 cells were seeded in 96-well cell culture plates at a density of 25,000 cells/well and incubated at 37° C., 5% CO2. A compound dose-response titration was diluted in growth media, added to appropriate wells of a cell culture plate, and then incubated at 37° C., 5% CO2 for 2 hours. Following compound treatment, cells were washed with ice-cold Dulbecco's phosphate-buffered saline, no Ca^2+ or Mg^2+ (ThermoFisher Scientific 14190144), and then lysed in RIPA buffer (50 mM Tris-HCl pH 7.5, 1% Igepal, 0.5% sodium deoxycholate, 150 mM NaCl, and 0.5% sodium dodecyl sulfate) containing protease inhibitors (Roche 4693132001) and phosphatase inhibitors (Roche 4906837001). Phosphorylation of ERK1/2 in compound-treated lysates was assayed using Phospho-ERK1/2 Whole Cell Lysate kits (Meso Scale Discovery K151DWD) according to the manufacturer's protocol. Assay plates were read on a Meso Scale Discovery Sector Imager 6000, and data were analyzed using a 4-parameter logistic model to calculate IC50 values.

The target of assay [3] is His-tagged KRAS G12D protein (Homo sapiens (Human), UniProt P01116, G12D). In words: KRAS G12D TR-FRET Assay. It counts as binding. The settings on record: read-out: KRAS G12D Binding IC50. In short, it runs like this:
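Each incubation ran at room temperature: enzyme with compound for 30 minutes, peptide for one hour, and detection reagents (0.4 nM europium anti-6×His, 5 nM streptavidin-d2) for one hour more. Protein and peptide stocks were each diluted to 20 nM before addition.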

Read-outs that look alike come from different tables or passages of the source.

Chain of GDP-bound KRAS protein (aa 1-169), containing both G12D and C118A amino acid substitutions (P01116 other isoform, or with tags, fused parts or gaps G12D/C118A): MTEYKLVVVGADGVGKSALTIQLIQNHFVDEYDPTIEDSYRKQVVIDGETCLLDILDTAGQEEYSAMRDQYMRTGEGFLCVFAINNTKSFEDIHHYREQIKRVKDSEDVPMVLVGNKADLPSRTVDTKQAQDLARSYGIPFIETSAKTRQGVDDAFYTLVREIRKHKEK
Chain of His-tagged KRAS G12D protein (P01116 other isoform, or with tags, fused parts or gaps G12D): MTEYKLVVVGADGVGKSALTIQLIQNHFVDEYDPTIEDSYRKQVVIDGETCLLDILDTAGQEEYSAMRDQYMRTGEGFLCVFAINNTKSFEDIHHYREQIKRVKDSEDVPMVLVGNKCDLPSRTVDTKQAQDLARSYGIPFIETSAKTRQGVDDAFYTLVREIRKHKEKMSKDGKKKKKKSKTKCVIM

For `Cc1cc2[nH]ncc2c2c1CCCCC(=O)N[C@@H]1COCCN(C1)c1nc(OC[C@@]34CCCN3C[C@H](F)C4)nc3c(F)c-2ncc13` [Example 66, (26S)-32-fluoro-4-(((2R,7aS)-2-fluorotetrahydro-1H-pyrrolo[1,2-a]pyrrol-7a(5H)-yl)methoxy)-18-methyl-28-oxa-1,3,5,9,14,15,25-heptaazahexacyclo [24.4.1.1~6,10~.0~2,7~.0~11,19~.0~12,16~]dotriaconta-2,4,6,8,10(32),11,13,16,18-nonaen-24-one], the IC50 in assay [1] is 26 nM; in assay [2] (Homo sapiens, ASPC1, 2 h) it was 4700 nM; in assay [3], 34 nM.

`O=C1CCCc2c(F)ccc3cccc(c23)-c2ncc3c(nc(OC[C@@]45CCCN4C[C@H](F)C5)nc3c2F)N2CCC[C@H](C2)N1` [Example 68, (15R)-22,31-Difluoro-8-(((2R,7aS)-2-fluorotetrahydro-1H-pyrrolo[1,2-a]pyrrol-7a(5H)-yl)methoxy)-3,7,9,11,16-pentaazahexacyclo[19.7.1.1˜2,6˜.1˜11,15˜.0˜5,10˜.0˜25,29˜]hentriaconta-1(28),2(31),3,5,7,9,21,23,25(29),26-decaen-17-one 2,2,2-trifluoroacetate]: the IC50 in assay [1] was 16 nM; in assay [2] (Homo sapiens, ASPC1, 2 h), 931 nM; in assay [3], 33 nM.

Take `O=C1CCCc2c(F)ccc3cccc(c23)-c2ncc3c(nc(OC[C@@]45CCCN4C[C@H](F)C5)nc3c2F)N2CCCC[C@H](C2)N1` [Example 69, (16R)-23,32-difluoro-8-(((2R,7aS)-2-fluorotetrahydro-1H-pyrrolo[1,2-a]pyrrol-7a(5H)-yl)methoxy)-3,7,9,11,17-pentaazahexacyclo[20.7.1.1~2,6~.1~11,16~.0~5,10~.0~26,30~]dotriaconta-1(29),2(32),3,5,7,9,22,24,26(30),27-decaen-18-one]: the IC50 in assay [1] is 20 nM; in assay [2] (Homo sapiens, ASPC1, 2 h), 1140 nM; in assay [3] it was 30 nM.

Consider `CN1C(=O)CCCCc2c(Cl)cc3[nH]ncc3c2-c2cc3nc(OC[C@@]45CCCN4C[C@H](F)C5)nc(c3nn2)N2CCC[C@@H]1C2` [Example 73, (17R)-9-Chloro-24-(((2R,7aS)-2-fluorotetrahydro-1H-pyrrolo[1,2-a]pyrrol-7a(5H)-yl)methoxy)-16-methyl-5,6,16,21,23,25,28,29-octaazahexacyclo[24.3.1.1˜17,21˜.0˜2,10˜.0˜3,7˜.0˜22,27˜]hentriaconta-1(30),2,4,7,9,22,24,26,28-nonaen-15-one], for which the IC50 in assay [1] is 20 nM; in assay [2] (Homo sapiens, ASPC1, 2 h), 2070 nM; in assay [3], 29 nM.

For `CN1C(=O)OCCCc2c(Cl)cc3[nH]ncc3c2-c2ncc3c(nc(OC[C@@]45CCCN4C[C@H](F)C5)nc3c2F)N2CCC[C@@H]1C2` [Example 74, (17R)-9-Chloro-30-fluoro-24-(((2R,7aS)-2-fluorotetrahydro-1H-pyrrolo[1,2-a]pyrrol-7a(5H)-yl)methoxy)-16-methyl-14-oxa-5,6,16,21,23,25,29-heptaazahexacyclo[24.3.1.1˜17,21˜.0˜2,10˜.0˜3,7˜.0˜22,27˜]hentriaconta-1(30),2,4,7,9,22,24,26,28-nonaen-15-one], the IC50 in assay [1] was 2 nM; in assay [2] (Homo sapiens, ASPC1, 2 h) it was 16 nM; in assay [3] it was 3 nM.

On to `O=C1CCCCc2c(C(F)(F)F)cc3[nH]ncc3c2-c2ncc3c(nc(OC[C@@]45CCCN4C[C@H](F)C5)nc3c2F)N2CCC[C@H](C2)O1` [Example 87, (17R)-30-fluoro-24-(((2R,7aS)-2-fluorotetrahydro-1H-pyrrolo[1,2-a]pyrrol-7a(5H)-yl)methoxy)-9-(trifluoromethyl)-16-oxa-5,6,21,23,25,29-hexaazahexacyclo[24.3.1.1~17,21~.0~2,10~.0~3,7~.0~22,27~]hentriaconta-1(30),2,4,7,9,22,24,26,28-nonaen-15-one], for which the IC50 came to 23 nM in assay [1]; 421 nM in assay [2] (Homo sapiens, ASPC1, 2 h); 24 nM in assay [3].

On to `O=C1CC2CCCN(C2)c2nc(OC[C@@]34CCCN3C[C@H](F)C4)nc3c(F)c(ncc23)-c2cccc3cccc(c23)CCO1` (stereo partly drawn) [Example 88], for which the IC50 was 11 nM in assay [1]; 1580 nM in assay [2] (Homo sapiens, ASPC1, 2 h); 19 nM in assay [3].

Take `O=C1COCCc2c(Cl)cc3[nH]ncc3c2-c2ncc3c(nc(OC[C@@]45CCCN4C[C@H](F)C5)nc3c2F)N2CCC[C@H](C2)O1` [Example 90, (17R)-9-chloro-30-fluoro-24-(((2R,7aS)-2-fluorotetrahydro-1H-pyrrolo[1,2-a]pyrrol-7a(5H)-yl)methoxy)-13,16-dioxa-5,6,21,23,25,29-hexaazahexacyclo[24.3.1.1~17,21~.0~2,10~.0~3,7~.0~22,27~]hentriaconta-1(30),2,4,7,9,22,24,26,28-nonaen-15-one]: the IC50 in assay [1] turned out to be 11 nM; in assay [2] (Homo sapiens, ASPC1, 2 h), 167 nM; in assay [3] it was 12 nM.

As to `Cc1cc2[nH]ncc2c2c1CCCOC(=O)O[C@@H]1CCCCN(C1)c1nc(OC[C@@H]3C[C@@H](F)CN3C)nc3c(F)c-2ncc13` [Example 92, (26R)-32-fluoro-4-(((2S,4R)-4-fluoro-1-methyl-2-pyrrolidinyl)methoxy)-18-methyl-23,25-dioxa-1,3,5,9,14,15-hexaazahexacyclo[24.4.1.1~6,10~.0~2,7~.0~11,19~.0~12,16~]dotriaconta-2,4,6,8,10(32),11,13,16,18-nonaen-24-one], the IC50 in assay [1] is 11 nM; in assay [2] (Homo sapiens, ASPC1, 2 h), 317 nM; in assay [3] it was 13 nM.

Take `Cc1cc2[nH]ncc2c2c1/C=C/COC(=O)O[C@@H]1CCCN(C1)c1nc(OC[C@@]34CCCN3C[C@H](F)C4)nc3c(F)c-2ncc13` [Example 101, (11E,17R)-30-fluoro-24-(((2R,7aS)-2-fluorotetrahydro-1H-pyrrolo[1,2-a]pyrrol-7a(5H)-yl)methoxy)-9-methyl-14,16-dioxa-5,6,21,23,25,29-hexaazahexacyclo[24.3.1.1~17,21~.0~2,10~.0~3,7~.0~22,27~]hentriaconta-1(30),2,4,7,9,11,22,24,26,28-decaen-15-one]: the IC50 in assay [1] was found to be 70 nM; in assay [2] (Homo sapiens, ASPC1, 2 h) it was 1340 nM; in assay [3], 93 nM.

As to `Cc1cc2[nH]ncc2c2c1CCCCOC(=O)[C@@H]1CCCN(C1)c1nc(OC[C@@]34CCCN3C[C@H](F)C4)nc3c(F)c-2ncc13` [Example 108], the IC50 in assay [1] amounted to 14 nM; in assay [2] (Homo sapiens, ASPC1, 2 h), 386 nM; in assay [3], 24 nM.

With `Cc1cc2[nH]ncc2c2c1CC(C)COC(=O)O[C@@H]1CCCN(C1)c1nc(OC[C@@]34CCCN3C[C@H](F)C4)nc3c(F)c-2ncc13` (stereo partly drawn) [Example 111], the IC50 in assay [1] is 11 nM; in assay [2] (Homo sapiens, ASPC1, 2 h), 187 nM; in assay [3], 15 nM.

As to `CN1CCO[C@@H](COc2nc3c4cnc(c(F)c4n2)-c2c(c(Cl)cc4[nH]ncc24)CCCOC(=O)O[C@@H]2COCCN3C2)C1` [Example 124], the IC50 came out at 15 nM in assay [1]; 479 nM in assay [2] (Homo sapiens, ASPC1, 2 h); 20 nM in assay [3].

For `Fc1c2ncc3c(nc(OC[C@@]45CCCN4C[C@H](F)C5)nc13)N1CCC[C@@H](COCCOCc3c(Cl)cc4[nH]ncc4c3-2)C1` [Example 142], the IC50 in assay [1] was 15 nM; in assay [2] (Homo sapiens, ASPC1, 2 h), 247 nM; in assay [3] it was 17 nM.

With `Fc1c2ncc3c(nc(OC[C@@]45CCCN4C[C@H](F)C5)nc13)N1CCC[C@H](C1)Cn1cc(cn1)/C=C\c1c(Cl)cc3[nH]ncc3c1-2` [Example 147], the IC50 amounted to 13 nM in assay [1]; 298 nM in assay [2] (Homo sapiens, ASPC1, 2 h); 16 nM in assay [3].

On to `Fc1c2ncc3c(nc(OC[C@@]45CCCN4C[C@H](F)C5)nc13)N1CCO[C@@H](COCC(F)(F)CCc3c(Cl)cc4[nH]ncc4c3-2)C1` [Example 150, (17R)-9-Chloro-13,13,30-trifluoro-24-(((2R,7aS)-2-fluorotetrahydro-1H-pyrrolo[1,2-a]pyrrol-7a(5H)-yl)methoxy)-15,18-dioxa-5,6,21,23,25,29 hexaazahexacyclo[24.3.1.1˜17,21˜.0˜2,10˜.0˜3,7˜.0˜22,27˜]hentriaconta-1(30),2,4,7,9,22,24,26,28-nonaene], for which the IC50 in assay [1] is 17 nM; in assay [2] (Homo sapiens, ASPC1, 2 h) it was 306 nM; in assay [3] it was 33 nM.

In the case of `Cc1cc2[nH]ncc2c2c1CCCn1ncc(n1)C1CCCN(C1)c1nc(OC[C@@]34CCCN3C[C@H](F)C4)nc3c(F)c-2ncc13` (stereo partly drawn) [Example 158, 31-Fluoro-25-(((2R,7aS)-2-fluorotetrahydro-1H-pyrrolo[1,2-a]pyrrol-7a(5H)-yl)methoxy)-9-methyl-5,6,14,15,22,24,26,30,33-nonaazaheptacyclo[25.3.1.1˜14,17˜.1˜18,22.0˜2,10˜.0˜3,7˜.0˜23,28˜]tritriaconta-1(31),2,4,7,9,15,17(33),23,25,27,29-undecaene], the values for the IC50 in assay [1], in assay [2] (2 h) and in assay [3] were 6 nM, 278 nM and 20 nM, respectively.
